Assay results: PubChem BioAssay (NCI)
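The concentration for 50% growth inhibition is given as GI50. TGI denotes the concentration required for complete inhibition of growth.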

Columns and labels:
Experiment in all cases: DTP human tumour cell line panel, 384-well format
IGROV1 ovarian = test system: IGROV1 ovarian
SK-MEL-2 melanoma = test system: SK-MEL-2 melanoma
MDA-MB-435 melanoma = test system: MDA-MB-435 melanoma
SNB-19 CNS = test system: SNB-19 CNS
A498 renal = test system: A498 renal
NCI-H522 lung = test system: NCI-H522 lung
LOX IMVI melanoma = test system: LOX IMVI melanoma
OVCAR-4 ovarian = test system: OVCAR-4 ovarian
RPMI-8226 leukemia = test system: RPMI-8226 leukemia
SR leukemia = test system: SR leukemia
MOLT-4 leukemia = test system: MOLT-4 leukemia
NCI-H322M lung = test system: NCI-H322M lung
COLO 205 colon = test system: COLO 205 colon
SK-OV-3 ovarian = test system: SK-OV-3 ovarian
OVCAR-8 ovarian = test system: OVCAR-8 ovarian
KM12 colon = test system: KM12 colon
RXF 393 renal = test system: RXF 393 renal
CCRF-CEM leukemia = test system: CCRF-CEM leukemia
NCI-H226 lung = test system: NCI-H226 lung
NCI/ADR-RES ovarian = test system: NCI/ADR-RES ovarian
HCT-15 colon = test system: HCT-15 colon
SN12C renal = test system: SN12C renal
U251 glioblastoma = test system: U251 glioblastoma
NCI-H23 lung = test system: NCI-H23 lung
UACC-62 melanoma = test system: UACC-62 melanoma
M14 melanoma = test system: M14 melanoma
MDA-MB-468 breast = test system: MDA-MB-468 breast
UO-31 renal = test system: UO-31 renal
TK-10 renal = test system: TK-10 renal
786-0 renal = test system: 786-0 renal
SK-MEL-28 melanoma = test system: SK-MEL-28 melanoma
SF-295 CNS = test system: SF-295 CNS
HT29 colon = test system: HT29 colon
SF-268 CNS = test system: SF-268 CNS
OVCAR-3 ovarian = test system: OVCAR-3 ovarian
HL-60(TB) leukemia = test system: HL-60(TB) leukemia
UACC-257 melanoma = test system: UACC-257 melanoma
MALME-3M melanoma = test system: MALME-3M melanoma
BT-549 breast = test system: BT-549 breast
MDA-MB-231 breast = test system: MDA-MB-231 breast
HCC-2998 colon = test system: HCC-2998 colon
SK-MEL-5 melanoma = test system: SK-MEL-5 melanoma
SF-539 CNS = test system: SF-539 CNS
HOP-62 NSCLC = test system: HOP-62 NSCLC
NCI-H460 NSCLC = test system: NCI-H460 NSCLC

Q: How did the GI50 (IGROV1 ovarian) turn out when `COc1ncnn2ccc(-c3cnc4nc(C)n(Cc5nnc(C(C)F)o5)c4c3)c12` (stereo not given) was run?
A: 0.0265 µM

Q: And the TGI (IGROV1 ovarian)?
A: 0.135 µM

Q: What about the GI50 (SK-MEL-2 melanoma) of the same molecule?
A: 0.0294 µM

Q: What about the TGI (SK-MEL-2 melanoma) of the same molecule?
A: 0.0772 µM

Q: And the GI50 (MDA-MB-435 melanoma)?
A: 0.0673 µM

Q: What about the TGI (MDA-MB-435 melanoma) of the same molecule?
A: 0.236 µM

Q: What about the GI50 (SNB-19 CNS) of the same molecule?
A: 0.0371 µM

Q: And the TGI (SNB-19 CNS)?
A: > 100 µM

Q: And the GI50 (A498 renal)?
A: 0.0426 µM

Q: And the TGI (A498 renal)?
A: 0.187 µM

Q: And the GI50 (NCI-H522 lung)?
A: 0.0148 µM

Q: And the TGI (NCI-H522 lung)?
A: 0.052 µM

Q: And the GI50 (LOX IMVI melanoma)?
A: 0.0583 µM

Q: And the TGI (LOX IMVI melanoma)?
A: 0.161 µM

Q: What about the GI50 (OVCAR-4 ovarian) of the same molecule?
A: 0.0572 µM

Q: What about the TGI (OVCAR-4 ovarian) of the same molecule?
A: 0.215 µM

Q: And the GI50 (RPMI-8226 leukemia)?
A: 0.0405 µM

Q: And the TGI (RPMI-8226 leukemia)?
A: 0.0958 µM

Q: What about the GI50 (SR leukemia) of the same molecule?
A: 0.0155 µM

Q: What about the TGI (SR leukemia) of the same molecule?
A: 0.0294 µM

Q: What about the GI50 (MOLT-4 leukemia) of the same molecule?
A: 0.0185 µM

Q: What about the TGI (MOLT-4 leukemia) of the same molecule?
A: 0.0334 µM

Q: And the GI50 (NCI-H322M lung)?
A: 0.0822 µM

Q: What about the TGI (NCI-H322M lung) of the same molecule?
A: 0.815 µM

Q: And the GI50 (COLO 205 colon)?
A: 0.0268 µM

Q: What about the TGI (COLO 205 colon) of the same molecule?
A: 0.0675 µM

Q: What about the GI50 (SK-OV-3 ovarian) of the same molecule?
A: 0.0287 µM

Q: What about the TGI (SK-OV-3 ovarian) of the same molecule?
A: 0.132 µM

Q: What about the GI50 (OVCAR-8 ovarian) of the same molecule?
A: 0.0402 µM

Q: What about the TGI (OVCAR-8 ovarian) of the same molecule?
A: 0.256 µM

Q: What about the GI50 (KM12 colon) of the same molecule?
A: 0.0248 µM

Q: What about the TGI (KM12 colon) of the same molecule?
A: 0.0955 µM

Q: What about the GI50 (RXF 393 renal) of the same molecule?
A: 0.056 µM

Q: And the TGI (RXF 393 renal)?
A: 0.188 µM

Q: And the GI50 (CCRF-CEM leukemia)?
A: 0.0211 µM

Q: What about the TGI (CCRF-CEM leukemia) of the same molecule?
A: 0.0419 µM

Q: What about the GI50 (NCI-H226 lung) of the same molecule?
A: 0.117 µM

Q: And the TGI (NCI-H226 lung)?
A: 0.283 µM

Q: What about the GI50 (NCI/ADR-RES ovarian) of the same molecule?
A: 0.154 µM

Q: And the TGI (NCI/ADR-RES ovarian)?
A: 0.415 µM

Q: What about the GI50 (HCT-15 colon) of the same molecule?
A: 0.033 µM

Q: And the TGI (HCT-15 colon)?
A: 0.147 µM

Q: What about the GI50 (SN12C renal) of the same molecule?
A: 0.0435 µM

Q: And the TGI (SN12C renal)?
A: 0.215 µM

Q: What about the GI50 (U251 glioblastoma) of the same molecule?
A: 0.0432 µM

Q: And the TGI (U251 glioblastoma)?
A: 0.338 µM

Q: What about the GI50 (NCI-H23 lung) of the same molecule?
A: 0.0197 µM

Q: What about the TGI (NCI-H23 lung) of the same molecule?
A: 0.0469 µM

Q: What about the GI50 (UACC-62 melanoma) of the same molecule?
A: 0.0249 µM

Q: What about the TGI (UACC-62 melanoma) of the same molecule?
A: 0.0807 µM

Q: What about the GI50 (M14 melanoma) of the same molecule?
A: 0.185 µM

Q: What about the TGI (M14 melanoma) of the same molecule?
A: 0.334 µM

Q: What about the GI50 (MDA-MB-468 breast) of the same molecule?
A: 0.0176 µM

Q: And the TGI (MDA-MB-468 breast)?
A: 0.0434 µM

Q: What about the GI50 (UO-31 renal) of the same molecule?
A: 0.103 µM

Q: What about the TGI (UO-31 renal) of the same molecule?
A: 0.27 µM

Q: And the GI50 (TK-10 renal)?
A: 0.0447 µM

Q: And the TGI (TK-10 renal)?
A: 0.261 µM

Q: And the GI50 (786-0 renal)?
A: 0.116 µM

Q: And the TGI (786-0 renal)?
A: 0.252 µM

Q: And the GI50 (SK-MEL-28 melanoma)?
A: 0.0519 µM

Q: What about the TGI (SK-MEL-28 melanoma) of the same molecule?
A: 0.184 µM

Q: What about the GI50 (SF-295 CNS) of the same molecule?
A: 0.11 µM

Q: What about the TGI (SF-295 CNS) of the same molecule?
A: 0.307 µM

Q: What about the GI50 (HT29 colon) of the same molecule?
A: 0.142 µM

Q: And the TGI (HT29 colon)?
A: 0.284 µM

Q: What about the GI50 (SF-268 CNS) of the same molecule?
A: 0.133 µM

Q: And the TGI (SF-268 CNS)?
A: 0.4 µM

Q: And the GI50 (OVCAR-3 ovarian)?
A: 0.0172 µM

Q: And the TGI (OVCAR-3 ovarian)?
A: 0.0414 µM

Q: What about the GI50 (HL-60(TB) leukemia) of the same molecule?
A: 0.0515 µM

Q: What about the TGI (HL-60(TB) leukemia) of the same molecule?
A: 0.156 µM

Q: And the GI50 (UACC-257 melanoma)?
A: 0.0201 µM

Q: And the TGI (UACC-257 melanoma)?
A: 0.0566 µM

Q: What about the GI50 (MALME-3M melanoma) of the same molecule?
A: 0.0956 µM

Q: And the TGI (MALME-3M melanoma)?
A: 0.223 µM

Q: And the GI50 (BT-549 breast)?
A: 0.0169 µM

Q: What about the TGI (BT-549 breast) of the same molecule?
A: 0.0499 µM

Q: What about the GI50 (MDA-MB-231 breast) of the same molecule?
A: 0.0779 µM

Q: And the TGI (MDA-MB-231 breast)?
A: 0.415 µM

Q: What about the GI50 (HCC-2998 colon) of the same molecule?
A: 0.0411 µM

Q: And the TGI (HCC-2998 colon)?
A: 0.196 µM

Q: What about the GI50 (SK-MEL-5 melanoma) of the same molecule?
A: 0.0154 µM

Q: What about the TGI (SK-MEL-5 melanoma) of the same molecule?
A: 0.045 µM

Q: What about the GI50 (SF-539 CNS) of the same molecule?
A: 0.126 µM

Q: And the TGI (SF-539 CNS)?
A: 0.286 µM

Q: And the GI50 (HOP-62 NSCLC)?
A: 0.0275 µM

Q: And the TGI (HOP-62 NSCLC)?
A: 0.122 µM

Q: And the GI50 (NCI-H460 NSCLC)?
A: 0.0426 µM

Q: And the TGI (NCI-H460 NSCLC)?
A: 0.163 µM
